For 10 molecules, IC50 results are on record in patent publication US20240409585A1, “MACROCYCLIC IMMUNOMODULATORS” (priority 2021, published 2024).

Structures are written as SMILES. Bridge positions count the residues as written; N and C are the ends. Square brackets hold non-standard residues; d marks the D form. Peptide text beside a SMILES is read from it. * marks the point of attachment. ξ: configuration not given here. Gly(1-amidinopiperidin-4-yl) = N=C(N)N1CCC([C@H](N)C(=O)O)CC1; Phe(4-COOH) = N[C@@H](Cc1ccc(C(=O)O)cc1)C(=O)O; Bip = N[C@@H](Cc1ccc(-c2ccccc2)cc1)C(=O)O; Phe(3-CN) = N#Cc1cccc(C[C@H](N)C(=O)O)c1; Phe(3-Cl) = N[C@@H](Cc1cccc(Cl)c1)C(=O)O; Phe(3-Me) = Cc1cccc(C[C@H](N)C(=O)O)c1; 1Nal = N[C@@H](Cc1cccc2ccccc12)C(=O)O; Val(3-OH) = CC(C)(O)[C@H](N)C(=O)O; 3Pal = N[C@@H](Cc1cccnc1)C(=O)O; 4Pal = N[C@@H](Cc1ccncc1)C(=O)O; Cha = N[C@@H](CC1CCCCC1)C(=O)O; Cit = NC(=O)NCCC[C@H](N)C(=O)O; Ile(3ξ) = CCC(C)[C@H](N)C(=O)O; Thr(3ξ) = CC(O)[C@H](N)C(=O)O; dDab = NCC[C@@H](N)C(=O)O; Carboxymethyl = O=C(O)C*; NMeA = CN[C@@H](C)C(=O)O; Dab = NCC[C@H](N)C(=O)O; Dap = NC[C@H](N)C(=O)O

For the assay, the target named is T1, PE-labeled human PD-L1-Ig binding to Jurkat cell line over-expressing human PD-1 (Jurkat-PD-1) (Homo sapiens, UniProt Q15116).
T1 construct: expressed in transfected cells; host or cells: Jurkat
T1 sequence (Q15116 25-288): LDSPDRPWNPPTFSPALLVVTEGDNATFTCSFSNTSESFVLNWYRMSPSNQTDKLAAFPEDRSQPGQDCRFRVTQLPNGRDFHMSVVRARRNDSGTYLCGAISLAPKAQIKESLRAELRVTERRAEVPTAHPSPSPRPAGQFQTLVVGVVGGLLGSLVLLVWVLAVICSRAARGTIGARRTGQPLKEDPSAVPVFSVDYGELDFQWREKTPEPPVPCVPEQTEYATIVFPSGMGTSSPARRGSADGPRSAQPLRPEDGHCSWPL
As to the kind of experiment: Jurkat-PD-1 Cell Binding High-Content Screening Assay (CBA): Method 1. The conditions noted are these: Jurkat-hPD-1 cells, PE-labeled PD-L1-Ig 20 nM final; read-out: Jurkat HPDL1 PD1 IC50 (uM) (Method 1).
Take `Cc1cccc(C[C@@H]2NC(=O)[C@H](CC(=O)O)NC(=O)[C@H](Cc3ccc(O)cc3)NC(=O)[C@H](CC(N)=O)NC(=O)CSC[C@@H](C(=O)N[C@H](C)C(N)=O)NC(=O)[C@H]([C@@H](C)O)NC(=O)[C@H](C(C)(C)O)NC(=O)[C@H](CC3CCCCC3)NC(=O)[C@H](CCN)NC(=O)[C@@H](CC(C)C)NC(=O)[C@H](C)N(C)C(=O)[C@H](CCCNC(N)=O)NC(=O)[C@H](Cc3ccc(-c4ccccc4)cc3)NC(=O)[C@H](C(C)(C)O)NC2=O)c1` [Compound 1706] ({CH2CO}-NYD[Phe(3-Me)][Val(3-OH)][Bip][Cit][NMeA][dL][Dab][Cha][Val(3-OH)]TC[dA]-NH2; thioether N-14): the IC50 was found to be 0.12 µM.
Turning to `CC(C)C[C@@H]1NC(=O)[C@H](CCN)NC(=O)[C@@H](CC(C)C)NC(=O)[C@H](C)N(C)C(=O)[C@H](CCCNC(N)=O)NC(=O)[C@H](Cc2ccc(-c3ccccc3)cc2)NC(=O)[C@H](C(C)C)NC(=O)[C@H](Cc2cccc(Cl)c2)NC(=O)[C@H](CC(=O)O)NC(=O)[C@H](Cc2ccc(O)cc2)NC(=O)[C@H](CC(N)=O)NC(=O)CSC[C@@H](C(=O)N[C@@H](C)C(N)=O)NC(=O)[C@H]([C@@H](C)O)NC(=O)[C@H](C(C)C)NC1=O` [Compound 1190] ({CH2CO}-NYD[Phe(3-Cl)]V[Bip][Cit][NMeA][dL][Dab]LVTCA-NH2; thioether N-14), the IC50 worked out at 0.02 µM.
As to `CCC(C)[C@@H]1NC(=O)[C@H](Cc2ccc(-c3ccccc3)cc2)NC(=O)[C@H](C(C)C)NC(=O)[C@H](Cc2c[nH]c3ccccc23)NC(=O)[C@H](CC(=O)O)NC(=O)[C@H](Cc2ccc(O)cc2)NC(=O)[C@H](C2CCN(C(=N)N)CC2)NC(=O)CSC[C@@H](C(=O)N[C@@H](C)C(N)=O)NC(=O)[C@H](C(C)O)NC(=O)[C@H](C(C)C)NC(=O)[C@H](CC2CCCCC2)NC(=O)[C@H](CCN)NC(=O)[C@@H](CC(C)C)NC(=O)[C@H](C)N(C)C1=O` (stereo partly drawn) [Compound 2054] ({CH2CO}-[Gly(1-amidinopiperidin-4-yl)]YDWV[Bip][Ile(3ξ)][NMeA][dL][Dab][Cha]V[Thr(3ξ)]CA-NH2; thioether N-14), the 50% inhibitory concentration (IC50) was 0.02 µM.
Consider `CCNC(=O)[C@H](CCN)NC(=O)[C@@H]1CSCC(=O)N[C@@H](Cc2ccncc2)C(=O)N[C@@H](Cc2ccc(OCC(=O)O)cc2)C(=O)N[C@@H](CC(=O)O)C(=O)N[C@@H](Cc2cccc(C)c2)C(=O)N[C@@H](Cc2ccc(OCC(=O)O)cc2)C(=O)N[C@@H](Cc2ccc(-c3ccccc3)cc2)C(=O)N[C@@H](Cc2ccc(OCC(=O)O)cc2)C(=O)N(C)[C@@H](C)C(=O)N[C@H](CC(C)C)C(=O)N[C@@H](CCN)C(=O)N[C@@H](CC2CCCCC2)C(=O)N[C@@H](C(C)C)C(=O)N[C@@H]([C@@H](C)O)C(=O)N1` [Compound 1858] ({CH2CO}-[4Pal]Y(Carboxymethyl)D[Phe(3-Me)]Y(Carboxymethyl)[Bip]Y(Carboxymethyl)[NMeA][dL][Dab][Cha]VTC[Dab]-NHEt; thioether N-14), for which the IC50 is 0.01 µM.
On to `CC(C)C[C@@H]1NC(=O)[C@H](CCCNC(=N)N)NC(=O)[C@H](Cc2cccc3ccccc23)NC(=O)[C@H](C)N(C)C(=O)[C@H](CCCNC(=N)N)NC(=O)[C@H](Cc2ccc(-c3ccccc3)cc2)NC(=O)[C@H](C(C)C)NC(=O)[C@H](Cc2c[nH]c3ccccc23)NC(=O)[C@H](CC(=O)O)NC(=O)[C@H](Cc2ccc(O)cc2)NC(=O)[C@H](CC(N)=O)NC(=O)CSC[C@@H](C(=O)N[C@@H](C)C(N)=O)NC(=O)[C@H]([C@@H](C)O)NC(=O)[C@H](C(C)C)NC1=O` [Compound 1185] ({CH2CO}-NYDWV[Bip]R[NMeA][1Nal]RLVTCA-NH2; thioether N-14), for which the IC50 stood at 0.35 µM.
Take `Cc1cccc(C[C@@H]2NC(=O)[C@H](CC(=O)O)NC(=O)[C@H](Cc3ccc(OCC(=O)O)cc3)NC(=O)[C@H](CN)NC(=O)CSC[C@@H](C(=O)N[C@@H](CCN)C(N)=O)NC(=O)[C@@H](CCN)NC(=O)[C@H](C(C)C)NC(=O)[C@H](CC3CCCCC3)NC(=O)[C@H](CCN)NC(=O)[C@@H](CC(C)C)NC(=O)[C@H](C)N(C)C(=O)[C@H](Cc3ccc(O)cc3)NC(=O)[C@H](Cc3ccc(-c4ccccc4)cc3)NC(=O)[C@H](Cc3ccc(O)cc3)NC2=O)c1` [Compound 1873] ({CH2CO}-[Dap]Y(Carboxymethyl)D[Phe(3-Me)]Y[Bip]Y[NMeA][dL][Dab][Cha]V[dDab]C[Dab]-NH2; thioether N-14): the IC50 amounted to 0.03 µM.
For the molecule `CC(C)C[C@@H]1NC(=O)[C@H](CCN)NC(=O)[C@@H](CC(C)C)NC(=O)[C@H](C)N(C)C(=O)[C@H](CCC(N)=O)NC(=O)[C@H](Cc2ccc(-c3ccccc3)cc2)NC(=O)[C@H](C(C)C)NC(=O)[C@H](Cc2c[nH]c3ccccc23)NC(=O)[C@H](CC(=O)O)NC(=O)[C@H](Cc2ccc(O)cc2)NC(=O)[C@H](CC(N)=O)NC(=O)CSC[C@@H](C(=O)N[C@@H](C)C(N)=O)NC(=O)[C@H]([C@@H](C)O)NC(=O)[C@H](C(C)C)NC1=O` [Compound 1301] ({CH2CO}-NYDWV[Bip]Q[NMeA][dL][Dab]LVTCA-NH2; thioether N-14), the IC50 was determined as 0.06 µM.
Turning to `CC(C)C[C@@H]1NC(=O)[C@H](CCN)NC(=O)[C@@H](CC(C)C)NC(=O)[C@H](C)N(C)C(=O)[C@H](Cc2cnc[nH]2)NC(=O)[C@H](Cc2ccc(-c3ccccc3)cc2)NC(=O)[C@H](C(C)C)NC(=O)[C@H](Cc2c[nH]c3ccccc23)NC(=O)[C@H](CC(=O)O)NC(=O)[C@H](Cc2ccc(O)cc2)NC(=O)[C@H](Cc2cccnc2)NC(=O)CSC[C@@H](C(=O)N[C@@H](C)C(N)=O)NC(=O)[C@H]([C@@H](C)O)NC(=O)[C@H](C(C)C)NC1=O` [Compound 1374] ({CH2CO}-[3Pal]YDWV[Bip]H[NMeA][dL][Dab]LVTCA-NH2; thioether N-14), the IC50 was determined as 0.04 µM.
Consider `CC(C)C[C@@H]1NC(=O)[C@H](CCN)NC(=O)[C@@H](CC(C)C)NC(=O)[C@H](C)N(C)C(=O)[C@H](CCCNC(=N)N)NC(=O)[C@H](Cc2ccc(-c3ccccc3)cc2)NC(=O)[C@H](C(C)C)NC(=O)[C@H](Cc2c[nH]c3ccccc23)NC(=O)[C@H](CC(=O)O)NC(=O)[C@H](Cc2cccc(C#N)c2)NC(=O)[C@H](CN)NC(=O)CSC[C@@H](C(=O)N[C@@H](C)C(N)=O)NC(=O)[C@H]([C@@H](C)O)NC(=O)[C@H](C(C)C)NC1=O` [Compound 1455] ({CH2CO}-[Dap][Phe(3-CN)]DWV[Bip]R[NMeA][dL][Dab]LVTCA-NH2; thioether N-14), for which the IC50 was 0.08 µM.
For `Cc1cccc(C[C@@H]2NC(=O)[C@H](CC(=O)O)NC(=O)[C@H](Cc3ccc(OCC(=O)O)cc3)NC(=O)[C@H](Cc3ccncc3)NC(=O)CSC[C@@H](C(=O)N[C@@H](CCN)C(N)=O)NC(=O)[C@H](CCC(=O)O)NC(=O)[C@H](C(C)C)NC(=O)[C@H](CC3CCCCC3)NC(=O)[C@H](CCN)NC(=O)[C@@H](CC(C)C)NC(=O)[C@H](C)N(C)C(=O)[C@H](Cc3ccc(OCC(=O)O)cc3)NC(=O)[C@H](Cc3ccc(-c4ccccc4)cc3)NC(=O)[C@H](Cc3ccc(C(=O)O)cc3)NC2=O)c1` [Compound 2193] ({CH2CO}-[4Pal]Y(Carboxymethyl)D[Phe(3-Me)][Phe(4-COOH)][Bip]Y(Carboxymethyl)[NMeA][dL][Dab][Cha]VEC[Dab]-NH2; thioether N-14), the IC50 was 0.01 µM.

Broadly, the IC50 is the concentration that gives 50% inhibition.
